Patent publication US20230114728A1 (Venatorx Pharmaceuticals, Inc., priority 2019, published 2023)
Converted amounts (≈) assume the structure as drawn.

Tests used:
Test in all cases: Broth microdilution MIC in CAMHB
Type in all cases: cell-based
[1] = system: E. coli 901C; details: Escherichia coli; E. coli 901C (hyper-permeable); MHB; read-out: Minimum Inhibitory Concentration, E. coli 901C
Procedure, shortened: (§1)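 Lowest compound concentration with no visible growth after 16-20 h at 37 °C defines MIC. Plates of 2-fold serial dilutions in cation-adjusted Mueller Hinton broth received 2-8×10^5 CFU/mL of exponentially grown cells, per CLSI methods; panel spans reference, hyper-permeable and efflux-pump-deleted strains.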

[2] = system: K. pneumoniae 848844 producing SHV-11 and KPC-2; details: Klebsiella pneumoniae, read-out: Minimum Inhibitory Concentration, K. pneumoniae 848844
Procedure, shortened: as §1

[3] = system: A. baumannii ATCC 19606; details: Acinetobacter baumannii, ATCC19606; MHB; read-out: Minimum Inhibitory Concentration, A. baumannii ATCC 19606
Procedure, shortened: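 CLSI microdilution; CAMHB; inoculum 2-8×10^5 CFU/mL from 3-5 h 37° C culture; 2-fold compound series; 16-20 h, 37° C; MIC = lowest well without visible growth.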

[4] = system: K. pneumoniae UMM producing SHV-5 and KPC-2; details: Klebsiella pneumoniae, read-out: Minimum Inhibitory Concentration, K. pneumoniae UMM
Procedure, shortened: as §1

[5] = system: E. coli D22; details: Escherichia coli; E. coli D22 (hyper-permeable); MHB; read-out: Minimum Inhibitory Concentration, E. coli D22
Procedure, shortened: as §1

[6] = system: P. aeruginosa ATCC 27853; details: Pseudomonas aeruginosa, ATCC27853; MHB; read-out: Minimum Inhibitory Concentration, P. aeruginosa ATCC 27853
Procedure, shortened: as §1

[7] = system: P. aeruginosa ATCC 35151; details: Pseudomonas aeruginosa, ATCC35151; MHB; hyper-permeable strain; read-out: Minimum Inhibitory Concentration, P. aeruginosa ATCC 35151
Procedure, shortened: as §1

[8] = system: P. aeruginosa (ΔmexAB-oprM); details: Pseudomonas aeruginosa, read-out: Minimum Inhibitory Concentration, P. aeruginosa ΔmexAB-OprM
Procedure, shortened: as §1

[9] = system: E. coli ATCC 25922; details: Escherichia coli, ATCC25922; E. coli ATCC 25922; MHB; read-out: Minimum Inhibitory Concentration, E. coli 25922
Procedure, shortened: as §1

[10] = system: K. pneumoniae SI-117 producing VIM-1; details: Klebsiella pneumoniae, read-out: Minimum Inhibitory Concentration, K. pneumoniae SI-117
Procedure, shortened: as §1

[11] = system: E. coli AG100; details: Escherichia coli; E. coli AG100 (wild-type parent); MHB; read-out: Minimum Inhibitory Concentration, E. coli AG100
Procedure, shortened: as §1

[12] = system: E. coli AG100A; details: Escherichia coli, read-out: Minimum Inhibitory Concentration, E. coli AG100A
Procedure, shortened: as §1

Structure (SMILES) | MIC [1] | MIC [2] | MIC [3] | MIC [4] | MIC [5] | MIC [6] | MIC [7] | MIC [8] | MIC [9] | MIC [10] | MIC [11] | MIC [12]
CS(=O)(=O)N1CCN(C(=O)N[C@H](C(=O)N[C@H]2Cc3cccc(C(=O)O)c3OB2O)c2c(F)cc(O)cc2F)C1=O (single isomer, unassigned) [Example 136] | 0.5 to 1 mg/L (≈ 0.859 to 1.72 µM) | > 128 mg/L | > 128 mg/L | > 128 mg/L | 8 to 16 mg/L (≈ 13.7 to 27.5 µM) | > 128 mg/L | 2 to 4 mg/L (≈ 3.43 to 6.87 µM) | > 128 mg/L | > 128 mg/L | > 128 mg/L | > 128 mg/L | 8 to 16 mg/L (≈ 13.7 to 27.5 µM)
CCN1CCN(C(=O)N[C@H](C(=O)N[C@H]2Cc3cccc(C(=O)O)c3OB2O)c2ccc(C(=O)O)c(F)c2F)C(=O)C1=O (single isomer, unassigned) [Example 139] | < 0.25 mg/L | > 128 mg/L | > 128 mg/L | 32 to 64 mg/L (≈ 54.4 to 109 µM) | 2 to 4 mg/L (≈ 3.4 to 6.8 µM) | > 128 mg/L | 0.5 to 1 mg/L (≈ 0.85 to 1.7 µM) | 8 to 16 mg/L (≈ 13.6 to 27.2 µM) | > 128 mg/L | > 128 mg/L | 32 to 64 mg/L (≈ 54.4 to 109 µM) | 8 to 16 mg/L (≈ 13.6 to 27.2 µM)
CCN1CCN(C(=O)N[C@@H](C(=O)N[C@H]2Cc3cccc(C(=O)O)c3OB2O)c2ccc(C(=O)O)c(F)c2F)C(=O)C1=O (single isomer, unassigned) [Example 140] | < 0.25 mg/L | > 128 mg/L | > 128 mg/L | 32 to 64 mg/L (≈ 54.4 to 109 µM) | 2 to 4 mg/L (≈ 3.4 to 6.8 µM) | > 128 mg/L | < 0.25 mg/L | 8 to 16 mg/L (≈ 13.6 to 27.2 µM) | 32 to 64 mg/L (≈ 54.4 to 109 µM) | > 128 mg/L | 32 to 64 mg/L (≈ 54.4 to 109 µM) | 2 to 4 mg/L (≈ 3.4 to 6.8 µM)
CCN1CCN(C(=O)N[C@H](C(=O)N[C@H]2Cc3cccc(C(=O)O)c3OB2O)c2ccc(C(=O)O)cc2O)C(=O)C1=O (single isomer, unassigned) [Example 143] | 0.5 to 1 mg/L (≈ 0.88 to 1.76 µM) | > 128 mg/L | > 128 mg/L | > 128 mg/L | 8 to 16 mg/L (≈ 14.1 to 28.2 µM) | > 128 mg/L | 2 to 4 mg/L (≈ 3.52 to 7.04 µM) | > 128 mg/L | > 128 mg/L | > 128 mg/L | > 128 mg/L | 32 to 64 mg/L (≈ 56.3 to 113 µM)
CCN1CCN(C(=O)N[C@@H](C(=O)N[C@H]2Cc3cccc(C(=O)O)c3OB2O)c2ccc(C(=O)O)cc2O)C(=O)C1=O (single isomer, unassigned) [Example 144] | < 0.25 mg/L | > 128 mg/L | 32 to 64 mg/L (≈ 56.3 to 113 µM) | 32 to 64 mg/L (≈ 56.3 to 113 µM) | 2 to 4 mg/L (≈ 3.52 to 7.04 µM) | > 128 mg/L | 0.5 to 1 mg/L (≈ 0.88 to 1.76 µM) | 8 to 16 mg/L (≈ 14.1 to 28.2 µM) | 32 to 64 mg/L (≈ 56.3 to 113 µM) | > 128 mg/L | 32 to 64 mg/L (≈ 56.3 to 113 µM) | 8 to 16 mg/L (≈ 14.1 to 28.2 µM)
CCN1CCN(C(=O)N[C@@H](C(=O)N[C@H]2Cc3cccc(C(=O)O)c3OB2O)c2ccc(C(=O)O)c(F)c2)C(=O)C1=O (single isomer, unassigned) [Example 146] | < 0.25 mg/L | > 128 mg/L | 32 to 64 mg/L (≈ 56.1 to 112 µM) | 32 to 64 mg/L (≈ 56.1 to 112 µM) | 2 to 4 mg/L (≈ 3.51 to 7.01 µM) | 32 to 64 mg/L (≈ 56.1 to 112 µM) | < 0.25 mg/L | 8 to 16 mg/L (≈ 14 to 28.1 µM) | 32 to 64 mg/L (≈ 56.1 to 112 µM) | > 128 mg/L | 32 to 64 mg/L (≈ 56.1 to 112 µM) | 2 to 4 mg/L (≈ 3.51 to 7.01 µM)
CCN1CCN(C(=O)N[C@H](C(=O)N[C@H]2Cc3cccc(C(=O)O)c3OB2O)c2ccc(C(=O)O)c(F)c2)C(=O)C1=O (single isomer, unassigned) [Example 147] | < 0.25 mg/L | > 128 mg/L | > 128 mg/L | 32 to 64 mg/L (≈ 56.1 to 112 µM) | 2 to 4 mg/L (≈ 3.51 to 7.01 µM) | > 128 mg/L | < 0.25 mg/L | 8 to 16 mg/L (≈ 14 to 28.1 µM) | 32 to 64 mg/L (≈ 56.1 to 112 µM) | > 128 mg/L | 32 to 64 mg/L (≈ 56.1 to 112 µM) | 2 to 4 mg/L (≈ 3.51 to 7.01 µM)
CCN1CCN(C(=O)N[C@@H](C(=O)N[C@H]2Cc3cccc(C(=O)O)c3OB2O)c2cc(F)c(C(=O)O)cc2Cl)C(=O)C1=O (single isomer, unassigned) [Example 148] | < 0.25 mg/L | > 128 mg/L | > 128 mg/L | 32 to 64 mg/L (≈ 52.9 to 106 µM) | 2 to 4 mg/L (≈ 3.31 to 6.61 µM) | > 128 mg/L | < 0.25 mg/L | 8 to 16 mg/L (≈ 13.2 to 26.5 µM) | > 128 mg/L | > 128 mg/L | 32 to 64 mg/L (≈ 52.9 to 106 µM) | 8 to 16 mg/L (≈ 13.2 to 26.5 µM)
